Measurements: patent US20080200372A1, “Glycosaminoglycan Peptides Derived From Connective Tissues And Use Thereof In The Prevention Of Arthritis And Other Degenerative Medical Conditions” (Institute of Nutraceutical Research Pty Ltd., priority 2004, published 2008)
“Also recorded” adds a separate entry of the source. Blank lines part the entries; values can stand above or below the compound they belong to.

Experiments:
[1] = tested on: rat collagen induced arthritis (CIA) model; test: Rat type II collagen induced arthritis (CIA) model, prophylactic protocol (15 days oral administration); assay type: in vivo; conditions: 200 mg/kg oral, 15 days administration, measured on day 15 (FIG. 8, FIG. 14)
Method: According to the prophylactic protocol of evaluation, the pharmaceutical composition of the present invention is administered to the animals from the time the animals are injected with arthritogen and for a number of days thereafter. In one example the pharmaceutical composition is administered to the animal for between 1 and 15 days after administration of the arthritogen. In alternate examples of the invention the pharmaceutical composition is administered for example for 7, 10, 15 or 20 days after administration of the arthritogen. The scope of the present invention extends to the administration of the pharmaceutical composition for an appropriate period of time after administration of the arthritogen that is suitable to effect prophylaxis to prevent the onset of symptoms of a harmful immune response to the arthritogen. […] The body weight of animals, together with their tail and paw swelling, were determined every 48 h, the latter parameters being determined using callipers and results expressed in millimetres (mm). Arthritis development was also assessed from day 11 onwards using a macroscopic scoring scale whereby rear paw, fore paw, and tail swelling were scored on a scale 0-4+. […]

[2] = tested on: rat collagen induced arthritis (CIA) model; test: Rat type II collagen induced arthritis (CIA) model, toleragenic protocol (7 days oral pre-administration); assay type: in vivo; conditions: for activity as toleragens in the rat CIA model: comparative study with CaP, FIG. 8
Method: In another example of the present invention, the tolerogenic protocol of evaluation of the pharmaceutical of the invention comprises administering the pharmaceutical composition to the animals prior to inducing arthritis by injection of the arthritogen. The pharmaceutical composition is administered for a period of time suitable to tolerize the animal. In one example the pharmaceutical composition is administered for 1 to 21 days prior to administration of the arthritogen. In one preferred example the pharmaceutical composition is administered for 1, 7, 10, 15 or 20 days prior to administration of the arthritogen. According to the toleragenic protocol for studying the activity of the pharmaceutical of the present invention, it is preferred that administration of the pharmaceutical composition ceases at the time that the arthritogen is administered.
Female Wistar rats (160-180 gm) were inoculated with 250 μg of the arthritogen, bovine tracheal collagen type-II dissolved in dilute acetic acid (0.01M) and applied as 6 divided injections into their tail base on day 0. The body weight of animals, together with their tail and paw swelling, were determined every 48 h, the latter parameters being determined using callipers and results expressed in millimetres (mm). Arthritis development was also assessed from day 11 onwards using a macroscopic scoring scale whereby rear paw, fore paw, and tail swelling were scored on a scale 0-4+. An overall arthritis score (0-4+) was also determined on the basis of overall inflammation and other signs of disease activity, e.g. piloerection, diminished mobility, poor grooming etc as described previously [Creamer M. et al. Collagen-induced arthritis in rats. J Immunology, 149:1045-1053, 1992]. […]

[3] = tested on: haemorrhagic stomach lesions produced by ibuprofen in rats with CIA; test: Gastroprotective activity in the rat CIA model against haemorrhagic stomach lesions produced by ibuprofen; assay type: in vivo
Method: FIG. 18 provides a table (Table 1) of the results for testing gastroprotective activity of Calcium Peptacan in the Rat CIA Arthritis Model against haemorrhagic stomach lesions produced by oral administration of the non-steroidal anti-inflammatory drug, Ibufrofen (50 mg/kg) on day 20.
As discussed earlier the chronic use of NSAIDs by OA and RA patients is frequently associated with serious side effects in the gastrointestinal tract particularly with respect the induction of gastric bleeding. This effect was confirmed in an animal model by administering 50 mg/kg of the NSAID, ibuprofen, to rats in which CIA had been ongoing for 20 days [see FIG. 18—Table 1].

[4] = tested on: citrated human plasma; test: In vitro anticoagulant activity, activated partial thromboplastin time (aPTT); assay type: biochemical
Method: Pharmaceutical quality chondroitin sulfate were obtained from Bioiberica, Barcelona, Spain (ChS#1) and Sigma Chemical Co St Louis, Mo., USA (ChS#2). Calcium peptacan (CaP), and GAG-peptide (GAG-P), prepared as described herein, were evaluated for their anticoagulant activities using a commercial aPTT reagent (Actin FSL activated PTT reagent, Dade-Behring Margurg GmbH, Marburg, Germany) and a standard human plasma: (Ci-Trol Coagulation Control level 2, Dade-Behring Margurg GmbH, Marburg, Germany) according to the protocol supplied by the manufacturer. Stock solutions of the test preparations were dissolved in 0.025M calcium chloride and serially diluted in this buffer to correspond to the concentrations of 0-1.25 mg/mL. The aPTT times were determined by the addition of these solutions to a mixture of the Actin FSL reagent and control plasma held at 37° C. in cuvettes of a fibrin-timer (Dade-Behring Margurg GmbH, Marburg, Germany). This instrument quantitated the time in seconds for clot formation. All samples were assayed in duplicate and the mean values plotted against concentration using a semi-log scale.

[5] = tested on: type II collagen (CII) arthritis (CIA) in mice; conditions: cited from earlier work

Compound: Cl.N[C@H]1C(O)O[C@H](CO)[C@@H](O)[C@@H]1O (stereo partly drawn) [GmHCl, Glucosamine Hydrochloride]
prophylactic effects on arthritis development (rear paw swelling, front paw inflammation, arthritis scores) [1]: CaP was the only preparation that demonstrated anti-arthritic activity
activity as toleragens in the rat CIA model [2]: inactive as toleragens

Compound: N[C@H]1C(O)O[C@H](CO)[C@@H](O)[C@@H]1O.O=S(=O)(O)O (stereo partly drawn) [GmSO4, Glucosamine Sulfate]
prophylactic effects on arthritis development (rear paw swelling, front paw inflammation, arthritis scores) [1]: CaP was the only preparation that demonstrated anti-arthritic activity
activity as toleragens in the rat CIA model [2]: inactive as toleragens

Compound: O=C(O)CC([S-])C(=O)O.[Au+] (stereo not drawn) [aurothiomalate]
gastro protective effectiveness ([3]; ibuprofen 50 mg/kg on day 20 of CIA, dose of test substance not given): only marginally effective

induction of gastric bleeding ([3]; 50 mg/kg to rats in which CIA had been ongoing for 20 days): confirmed
Compound: CC(C)Cc1ccc(C(C)C(=O)O)cc1 (stereo not drawn) [ibuprofen]

Compound: chondroitin sulfate [ChS #1]
anticoagulant effect (aPTT) ([4]; citrated human plasma, 0-1.25 mg/mL (FIG. 17)): strongest anticoagulant effect

Compound: chondroitin sulfate [ChS]
delayed-type hypersensitivity (DTH) reaction ([5]; at any dose (100, 300, 1000 mg/kg), mice): no effect
severity of the disease (hind paw oedema, synovitis, destruction of the articular cartilage) ([5]; only at the highest dose, 1000 mg/kg oral, mice): significantly reduced
incidence of arthritis ([5]; oral doses of 100, 300 and 1000 mg/kg for 14 days prior to inducing CIA in mice): failed to prevent the incidence of arthritis
concentration range over which anti-coagulant activity was exhibited ([4]; aPTT (FIG. 17)): 0.4 to 1.2 mg/mL
toleragenic effects on arthritis development (rear paw swelling, front paw inflammation, arthritis scores) ([2]; 20 mg/kg oral, 7 days pre-administration, measured on day 15 (FIG. 7, FIG. 9)): inactive as a toleragen; also recorded: no activity
